Source: patent US10738028B2, “Spiro three-membered ring, spiro five-membered ring peptide deformylase inhibitor and use thereof in antibacteria and anti-tumor” (priority 2016, dated 2020)
Where two headings read alike, the source gives them in different places.

How the values were obtained:
Assay type in all cases: cell-based
[1] = tested on: Enterococcus faecium (EFM); assay: MIC, two-fold agar dilution (CLSI), clinical isolates
Summary of the method: (§1)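 Test samples were assayed by the CLSI-recommended two-fold agar dilution method, and the minimum inhibitory concentration against each tested strain was determined.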

[2] = tested on: Moraxella catarrhalis (BCA); assay: as above
Summary of the method: as §1

[3] = tested on: Escherichia coli (including ESBLs, non-ESBLs); assay: as above
Summary of the method: as §1

[4] = tested on: methicillin-resistant Staphylococcus epidermidis (MRSE); assay: as above
Summary of the method: as §1

[5] = tested on: methicillin-sensitive Staphylococcus epidermidis (MSSE); assay: as above
Summary of the method: as §1

[6] = tested on: methicillin-sensitive Staphylococcus aureus (MSSA); assay: as above
Summary of the method: as §1

[7] = tested on: methicillin-resistant Staphylococcus aureus (MRSA); assay: as above
Summary of the method: as §1

[8] = tested on: Enterococcus faecalis (EFA); assay: as above
Summary of the method: as §1

[9] = tested on: HCT-116 colorectal cancer cell line; assay: CCK-8 proliferation inhibition; conditions: Homo sapiens, HCT-116, 72 h, concentration of 30 μM, 72 hours, CCK-8
Summary of the method: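 Proliferation over 72 hours of compound treatment was measured with CCK-8 against a 1‰ DMSO control.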

[10] = tested on: MGC-803 gastric cancer cell line; assay: CCK-8 proliferation inhibition; conditions: Homo sapiens, MGC-803, 72 h, concentration of 30 μM
Text: (§2) 2. The present invention adopts the CCK-8 method to determine the proliferation inhibition effect of the spiro three-membered ring, spiro five-membered ring peptide deformylase inhibitor as described in Examples 1-80 against colorectal cancer cells, lung cancer cells, gastric cancer cells, liver cancer cells, and the like. […] The compound having the best activity synthesized in Example 64 was further tested for its inhibitory activity against other tumor cells including T cell leukemia, acute myeloid leukemia, cervical cancer, breast cancer, prostate cancer and osteosarcoma, and the like (see Table 7).
(§3) (1) HCT-116 colorectal cancer cell line, A549 lung cancer cell line, MGC-803 gastric cancer cell line, BEL-7402 liver cancer cell line, Jurkat T cell leukemia cell line, HL60 acute myeloid leukemia cell line, Hela cervical cancer cell line, MCF-7 breast cancer cell line, PC3 prostate cancer cell line and SAOS-2 osteosarcoma cell line were made into single cell suspension, 180 μL of which was inoculated into 96-well culture plate, which was cultured overnight in CO2 incubator (37° C., 5% CO2, 95% air).
(§4) (2) Each of the spiro three-membered ring, spiro five membered ring peptide deformylase inhibitors was dissolved in DMSO, and was further formulated into drug solution with required different final concentration using corresponding cell culture medium. The drug solutions were added to the above cells respectively (20 μL/well), with the control group added with 1‰ DMSO, and cultured in a CO2 incubator for 72 hours.
(§5) (3) After incubation for 72 hours, the culture solution was decanted, and 100 μL of 1:10 diluted CCK-8 solution was added.
(§6) Wherein, in step (1), the concentration of the single cell suspension was 2000 cells/well.
(§7) Wherein, in step (2), HCT-116 cells were cultured in McCoy's 5A medium (containing 10% newborn bovine serum, 1% double antibody); A549 and PC3 cells were cultured in F12 medium (containing 10% newborn bovine serum, 1% double antibody); MGC-803, BEL-7402, SAOS-2, Jurkat and HL60 cells were cultured in 1640 medium (containing 10% newborn bovine serum, 1% double antibody); and MCF-7 and Hela cells were cultured in DMEM high glucose medium (containing 10% newborn bovine serum, 1% double antibody).

[11] = tested on: BEL-7402 liver cancer cell line; assay: CCK-8 proliferation inhibition; conditions: concentration of 30 μM
Text: as §2, §3, §4, §5, §6, §7

[12] = tested on: A549 lung cancer cell line; assay: CCK-8 proliferation inhibition; conditions: Homo sapiens, A549, 72 h, concentration of 30 μM
Text: as §2, §3, §4, §5, §6, §7

CCCC[C@H](CC(=O)NO)C(=O)N1CC2(CCCC2)C[C@H]1C(=O)Nc1cnccn1 [Example 77]
16%: inhibition at 30 µM [12]
> 32 µg/mL: Anti-bacterial activity (MIC), strain ECO+ 15-2 ([3]; clinical isolate ECO+ 15-2) | Anti-bacterial activity (MIC), strain ECO+ 15-3 ([3]; clinical isolate ECO+ 15-3) | Anti-bacterial activity (MIC), strain ECO+ 15-4 ([3]; clinical isolate ECO+ 15-4) | Anti-bacterial activity (MIC), strain ECO− 15-1 ([3]; clinical isolate ECO− 15-1) | Anti-bacterial activity (MIC), strain ECO− 15-2 ([3]; clinical isolate ECO− 15-2) | Anti-bacterial activity (MIC), strain ECO− 15-3 ([3]; clinical isolate ECO− 15-3) | Anti-bacterial activity (MIC), strain ECO− 15-4 ([3]; clinical isolate ECO− 15-4) | Anti-bacterial activity (MIC), strain MSSA 15-6 ([6]; clinical isolate MSSA 15-6)
30%: inhibition at 30 µM ([9]; read-out: HCT116 inhibition rate/%)
0.25 µg/mL: Anti-bacterial activity (MIC) ([2]; strain BCA 14-10) | Anti-bacterial activity (MIC), strain MRSA 15-1 ([7]; clinical isolate MRSA 15-1) | Anti-bacterial activity (MIC), strain MRSA 15-3 ([7]; clinical isolate MRSA 15-3)
1 µg/mL: Anti-bacterial activity (MIC) ([2]; strain BCA 14-1)
> 50%: inhibition at 30 µM ([11]; Homo sapiens, Bel-7402, 72 h)
16 µg/mL: Anti-bacterial activity (MIC) ([8]; strain EFA 15-9)
2 µg/mL: Anti-bacterial activity (MIC) ([1]; strain EFM 15-4) | Anti-bacterial activity (MIC) ([1]; strain EFM 15-5) | Anti-bacterial activity (MIC) ([1]; strain EFM 15-6) | Anti-bacterial activity (MIC) ([2]; strain BCA 14-4) | Anti-bacterial activity (MIC), strain MRSE 15-2 ([4]; clinical isolate MRSE 15-2) | Anti-bacterial activity (MIC), strain MRSE 15-3 ([4]; clinical isolate MRSE 15-3) | Anti-bacterial activity (MIC), strain MRSE 15-7 ([4]; clinical isolate MRSE 15-7) | Anti-bacterial activity (MIC), strain MSSE 15-4 ([5]; clinical isolate MSSE 15-4) | Anti-bacterial activity (MIC), strain MSSE 15-5 ([5]; clinical isolate MSSE 15-5)
≥ 30%: inhibition at 30 µM ([9]; Table 5, read-out: Inhibition of proliferation, Colorectal cancer HCT116)
0.125 µg/mL: Anti-bacterial activity (MIC) ([2]; strain BCA 14-5) | Anti-bacterial activity (MIC), strain ECO+ 15-1 ([3]; clinical isolate ECO+ 15-1) | Anti-bacterial activity (MIC), strain MSSE 15-6 ([5]; clinical isolate MSSE 15-6) | Anti-bacterial activity (MIC), strain MSSA 15-4 ([6]; clinical isolate MSSA 15-4) | Anti-bacterial activity (MIC), strain MSSA 15-5 ([6]; clinical isolate MSSA 15-5)
49%: Inhibition of proliferation, Liver cancer BEL-7402 ([11]; 72 hours, 30 µM)
0.5 µg/mL: Anti-bacterial activity (MIC) ([2]; strain BCA 14-6) | Anti-bacterial activity (MIC) ([2]; strain BCA 14-7) | Anti-bacterial activity (MIC) ([2]; strain BCA 14-8) | Anti-bacterial activity (MIC), strain MRSE 15-1 ([4]; clinical isolate MRSE 15-1) | Anti-bacterial activity (MIC), strain MSSE 15-3 ([5]; clinical isolate MSSE 15-3) | Anti-bacterial activity (MIC), strain MSSA 15-3 ([6]; clinical isolate MSSA 15-3) | Anti-bacterial activity (MIC), strain MRSA 15-2 ([7]; clinical isolate MRSA 15-2) | Anti-bacterial activity (MIC), strain MRSA 15-4 ([7]; clinical isolate MRSA 15-4)
19%: inhibition at 30 µM [10]
32 µg/mL: Anti-bacterial activity (MIC) ([1]; strain EFM 15-1) | Anti-bacterial activity (MIC) ([1]; strain EFM 15-2) | Anti-bacterial activity (MIC) ([1]; strain EFM 15-3) | Anti-bacterial activity (MIC) ([8]; strain EFA 15-1) | Anti-bacterial activity (MIC) ([8]; strain EFA 15-2) | Anti-bacterial activity (MIC) ([8]; strain EFA 15-3) | Anti-bacterial activity (MIC) ([8]; strain EFA 15-4) | Anti-bacterial activity (MIC) ([8]; strain EFA 15-5) | Anti-bacterial activity (MIC) ([8]; strain EFA 15-6)
